# Counter-ions that a name gives are not always drawn.
# B1: GCL: lectin protein purified from red alga Grateloupia chiangii by D-mannose affinity chromatography, SEQ ID NO: 1, about 25 kDa (protein)
# chain: MVVSNRLVSGESLHRGQHIISSDQHFMLVHQYDGNVVLYDVAGSGSGKPLWSTNTYGSHTTVFKMQEDSNLVLYATGGKPIWASDTHGSGGRFLEMQNDGNLVVYTDVGKPKWASDTHQGIAPRSEISVNQVLRIREGLHSANKRNELILQNDGNLVLSKNGSTAWSSGTAGTGANVLVLQIDGNLVLYNDTKSVWASGSMNKGGRTAVMQDDGNFVLYAEGGKPVWATNT
# modifications: GLC
# B2: fetuin (protein, UniProt P12763 19-359, looked up)
# Alpha-2-HS-glycoprotein: IPLDPVAGYKEPACDDPDTEQAALAAVDYINKHLPRGYKHTLNQIDSVKVWPRRPTGEVYDIEIDTLETTCHVLDPTPLANCSVRQQTQHAVEGDCDIHVLKQDGQFSVLFTKCDSSPDSAEDVRKLCPDCPLLAPLNDSRVVHAVEVALATFNAESNGSYLQLVEISRAQFVPLPVSVSVEFAVAATDCIAKEVVDPTKCNLLAEKQYGFCKGSVIQKALGGEDVRVTCTLFQTQPVIPQPQPDGAEAEAPSAVPDAAGPTPSAAGPPVASVVVGPSVVAVPLPLHRAHYDLRHTFSGVASVESSSGEAFHVGKTPIVGQPSIPGGPVRLCPGRIRYFKI
# How the values were obtained:
# GCL [1] = assay: Glycan microarray (glycan-300 array) binding to GCL; set-up: species or system Grateloupia chiangii; details: 50 μg/mL biotinylated lectin; for RFU (Normalized) GCL: Cy3-streptavidin detection
# Description: A glycan microarray was performed by Ebiogen (Korea). A glycan array kit was purchased from RayBioTech (Norcross, Ga., USA). An array consisting of 300 synthetic glycans printed in quadruplicate on a glass slide was used. Label-based detection was performed according to the manufacturer's protocol. 50 μg/mL of biotinylated lectin was put into wells, and gently shaken for 3 hours or more. The glass slide was washed with 1× washing buffers I and II provided in the kit. The glycan-lectin binding was detected by reacting with Cy3 equivalent dye-conjugated streptavidin at room temperature for an hour. Signals for Cy3 detection were visualized using a microarray laser scanner (Genfix 4100A, Molecular Devices, Sunnyvale, Calif., USA) (excitation at 554 nm, and emission at 568 nm). Data extraction was performed using microarray assay software Genfix. The […] array data was analyzed using RayBioTech (RayBioTech) software.
# To determine the carbohydrate specificity, a glycan microarray was carried out using a glycan-300 array kit in which 300 different carbohydrates were immobilized. Referring to FIGS. 6 and 7 and Table 2 below, 18 of the 300 tested carbohydrates produced at least 1,000 positive signals. GCL produced weak binding signals to the monosaccharides, that is, β-Glc-sp, β-Gal-sp, and α-Man-sp. Normalized signal intensities were 2,579, 2,269, and 2,194, respectively. Also, the GCL was able to bind to maltotetraose-β-Sp1 with a signal intensity of 2,705. […] It was that high-mannan structures, that is, Man-α-1,6-(Man-α-1,3-), Man-α-1,6-(GlcNAc-β-1,2-Man-α-1,3-)Man-β-1,4-GlcNAc-β-1, and 4-GlcNAc-Sp5, interacted with the GCL.
# [2] = tested on: herpes simplex virus 2 (HSV2) (MS); assay: Antiviral effect, CPE inhibition / MTT, HSV2; assay type: cell-based
# Description: (§1) The antiviral effect was determined through cell viability, and the like using a virus-induced cytopathic effect (CPE) inhibition method and an MTT method.
# [3] = tested on: herpes simplex virus 1 (HSV1) (F); assay: Antiviral effect, CPE inhibition / MTT, HSV1; assay type: cell-based
# Description: as §1
# [4] = Cytotoxicity (cell viability, MTT method)
# Description: as §1
# fetuin = assay: cell-based or functional assay
# GCL [5] = assay: Hemagglutination inhibition test (carbohydrate specificity of GCL); assay type: cell-based, Grateloupia chiangii; details: 4 haemagglutination activity units of GCL, equine red blood cells
# Description: The carbohydrate specificity was determined by means of a hemagglutination inhibition test. Proteins and carbohydrates used for the inhibition test included D-glucose (D-Glc), D-mannose (D-Man), D-galactose (D-Gal), N-acetyl-D-glucosamine (GlcNAc), N-acetyl-D-galactosamine (GalNAc), D-fucose (F-Fuc), fructose (Fru), lactose (Lac), and fetuin. A sample (25 μL) having 4 haemagglutination activity units was mixed with each of the carbohydrates (25 μL), and 25 μL of a mixture was removed from each well. An equivalent amount of a 4% suspension of equine red blood cells was added to, and mixed with the sample. The plate was kept at room temperature for 30 minutes, and then confirmed for inhibitory activities.
# equine red blood cells = assay: Hemagglutination assay, equine red blood cells; assay type: cell-based, horse
# Description: (§2) For a hemagglutination assay, horse and sheep blood was purchased (Hanil Comed, Korea). The blood was washed with phosphate buffered saline (PBS, pH 7.3) until a red color of a supernatant disappeared. Each of red blood cells was prepared into a 4% suspension in PBS. The sample was serially diluted in a 96-well U-bottom plate, and a 4% suspension of red blood cells was then added to each well. The sample was kept at room temperature for 30 minutes, and then confirmed for agglutination activities.
# [6] = Effect of divalent cations on GCL activity; details: presence of divalent cations (Mg2+ and Ca2+)
# Description: (§3) The thermal stability of GCL was measured at different temperatures (ranging from 20 to 90° C.). The GCL activities were not affected until the temperature reached 30° C. […] FIG. 5 is a graph for analyzing a change in degree of activity of CGL according to divalent cations added.
# ovine red blood cells = assay: Hemagglutination assay, ovine red blood cells; assay type: cell-based, sheep; details: 4% suspension, room temperature, 30 minutes
# Description: as §2
# [7] = Thermal stability of GCL activity; assay type: physicochemical
# Description: as §3
# [8] = 4% suspension, room temperature, 30 minutes
molecule,measurement,setting,value
"Glc-α-1,4-Glc-β-Sp1 [G0076]",RFU (Normalized) GCL,GCL [1],"1,238 ± 28 RFU"
"Glc-α-1,2-Gal-α-Sp [G0048]",RFU (Normalized) GCL,GCL [1],"1,173 ± 110 RFU"
Maltohexaose-β-Sp1 [G0082],Binding of GCL to glycan,GCL [1],strongly bound
same,RFU (Normalized) GCL,GCL [1],"7,524 ± 1,976 RFU"
D-cellose-β-Sp1 [G0087],RFU (Normalized) GCL,GCL [1],"1,165 ± 82 RFU"
"CN[C@@H]1[C@@H](O)[C@@H](O[C@@H]2[C@@H](O)[C@H](O[C@H]3OC(CN)=CC[C@H]3N)[C@@H](N)C[C@H]2N)OC[C@]1(C)O [G0056, Sisomicin Sulfate]",RFU (Normalized) GCL,GCL [1],"1,583 ± 177 RFU"
β-GlcNAc-Sp [G0006],RFU (Normalized) GCL,GCL [1],"1,104 ± 133 RFU"
β-Gal-Sp [G0002],Normalized signal intensity,GCL [1],"2,269"
same,RFU (Normalized) GCL,GCL [1],"2,165 ± 237 RFU"
pentosan polysulfate [Penosan polysulfate],Antiviral activity (EC50) HSV2 (MS),[2],2.10 µg/mL
same,Antiviral activity (EC50) HSV1 (F),[3],4.77 µg/mL
same,Toxicity CC50,[4],>100 µg/mL
β-Glc-Sp [G0001],Normalized signal intensity,GCL [1],"2,579"
same,RFU (Normalized) GCL,GCL [1],"2,273 ± 544 RFU"
Grateloupia chiangii-derived lectin (GCL),"inhibition of haemagglutination activity of GCL (4 haemagglutination activity units, equine red blood cells)",fetuin,195 µg/mL
Maltoheptaose-β-Sp1 [G0083],Binding of GCL to glycan,GCL [1],strongly bound
same,RFU (Normalized) GCL,GCL [1],"8,132 ± 1,810 RFU"
Nc1nc2c(ncn2COCCO)c(=O)[nH]1 [Acyclovir],Selective index HSV2 (MS),[2],>35
same,EC50,"[2]; Human alphaherpesvirus 2, footnote: concentration, μM",2.87 µM
same,Selective index HSV1 (F),[3],>192
same,EC50,"[3]; Human alphaherpesvirus 1, footnote: concentration, μM",0.52 µM
same,CC50,[4],> 100 µg/mL
"Man-α-1,6-(Man-α-1,3-)Man-α-1,6-(GlcNAc-β-1,2-Man-α-1,3-)Man-β-1,4-GlcNAc-β-1,4-GlcNAc-Sp5 [N-010]",RFU (Normalized) GCL,GCL [1],1142 ± 116 RFU
α-Man-Sp [G0003],Normalized signal intensity,GCL [1],"2,194"
same,RFU (Normalized) GCL,GCL [1],"2,093 ± 294 RFU"
dextran sulfate 8000,Antiviral activity (EC50) HSV2 (MS),[2],4.52 µg/mL
same,Antiviral activity (EC50) HSV1 (F),[3],15.54 µg/mL
"Man-α-1,6-(Man-α-1,3-)Man-α-1,6-[Gal-β-1,4-(Fuc-α-1,3-)GlcNAc-β-1,2-Man-α-1,3-]Man-β-1,4-GlcNAc-β-1,4-GlcNAc-Sp5 [N-014]",RFU (Normalized) GCL,GCL [1],1129 ± 151 RFU
Maltotetraose-β-Sp1 [G0080],Normalized signal intensity,GCL [1],"2,705"
same,RFU (Normalized) GCL,GCL [1],"2,577 ± 351 RFU"
O=C(CO)[C@@H](O)[C@H](O)[C@H](O)CO [fructose],Concentration inhibiting haemagglutination activity of GCL,GCL [5],250 mM
"Gal-β-1,4-Glc-Sp [H0400]",RFU (Normalized) GCL,GCL [1],"1,044 ± 110 RFU"
"Gal-α-1,4-Gal-β-1,4-Glc-β-Sp [G0018]",RFU (Normalized) GCL,GCL [1],"1,124 ± 47 RFU"
"Gal-β-1,4-Glc-β-Sp [G0016]",RFU (Normalized) GCL,GCL [1],"1,260 ± 126 RFU"
"Man-α-1,6-(Man-α-1,3-)Man-α-1,6-(Gal-β-1,4-GlcNAc-β-1,2-Man-α-1,3-)Man-β-1,4-GlcNAc-β-1,4-GlcNAc-Sp5 [N-011]",RFU (Normalized) GCL,GCL [1],1148 ± 173 RFU
O=C[C@@H](O)[C@@H](O)[C@H](O)[C@H](O)CO [D-mannose],Concentration inhibiting haemagglutination activity of GCL,GCL [5],125 mM
B1,Antiviral activity (EC50) HSV2 (MS),[2],0.036 µg/mL
same,Agglutination of equine red blood cells,equine red blood cells; [8],agglutinated
same,Minimal concentration for agglutination of equine red blood cells,equine red blood cells; [8],0.8 µg/mL
same,Specific activity (Titer/mg),equine red blood cells; hemagglutination titer per mg protein,"51,200 Titer/mg"
same,Total activity (Titer),"equine red blood cells; hemagglutination titer, purification step from 30 g sample","33,280 Titer"
same,Change in activity by divalent cations,[6],not highly affected
same,Agglutination of ovine red blood cells,ovine red blood cells,did not agglutinate
same,Antiviral activity (EC50) HSV1 (F),[3],0.18 µg/mL
same,Toxicity CC50,[4],>5 µg/mL
same,GCL activity according to temperature,[7]; at 40° C.,Half of the activities were lost
same,Initial activities maintained,[7]; heated at 90° C. for 30 minutes,approximately 15%
same,GCL activity according to temperature,[7]; until the temperature reached 30° C.,not affected
B2,Concentration inhibiting haemagglutination activity of GCL,GCL [5],195 µg/mL

# — patent US20200157156A1, “GRATELOUPIA CHIANGII-DERIVED LECTIN AND LECTIN GENE CODING FOR THE SAME” (priority 2018, published 2020)
